Conditions: for mass density / vapor or sublimation pressure: Liquid; for vapor or sublimation pressure: Closed cell (Static) method; for speed of sound: Gas

FC(F)(F)/C=C/Cl [(E)-1-chloro-3,3,3-trifluoroprop-1-ene]
Conditions	mass density [kg/m3]	speed of sound [m/s]
215.01 K, 1815.3 kPa	1449.31	–
220 K, 1921.7 kPa	1439.12	–
220 K, 8321.7 kPa	1447.77	–
225 K, 8257.8 kPa	1437.64	–
230 K, 14558 kPa	1436.27	–
235 K, 1363.6 kPa	1406.94	–
235 K, 5155.5 kPa	1412.84	–
235 K, 10102 kPa	1420.19	–
235 K, 15131 kPa	1427.32	–
235 K, 20809 kPa	1434.98	–
240 K, 7088 kPa	1405.56	–
245 K, 12803 kPa	1404.29	–
250 K, 18468 kPa	1403.09	–
255 K, 1176.9 kPa	1363.85	–
255 K, 5115 kPa	1371.16	–
255 K, 10377 kPa	1380.36	–
255 K, 15392 kPa	1388.62	–
255 K, 21124 kPa	1397.53	–
255 K, 24078 kPa	1401.93	–
260 K, 6173.2 kPa	1362.59	–
265 K, 11152 kPa	1361.41	–
270 K, 16100 kPa	1360.29	–
275 K, 1267.3 kPa	1319.85	–
275 K, 4966.8 kPa	1328.13	–
275 K, 10048 kPa	1338.72	–
275 K, 15054 kPa	1348.44	–
275 K, 21020 kPa	1359.23	–
280 K, 5624.6 kPa	1318.7	–
285 K, 9970.2 kPa	1317.63	–
289.99 K, 80.81 kPa	–	137.76
290.01 K, 14296 kPa	1316.62	–
290.06 K, 80.8 kPa	–	137.77
295 K, 1205.6 kPa	1273.49	–
295 K, 5284 kPa	1284.64	–
295 K, 10000 kPa	1296.45	–
295 K, 14695 kPa	1307.26	–
295 K, 18582 kPa	1315.63	–
299.99 K, 4671.2 kPa	1271.6	–
300 K, 4941.7 kPa	1272.36	–
300.01 K, 79.96 kPa	–	140.51
300.01 K, 80 kPa	–	140.52
300.01 K, 113.38 kPa	–	138.9
300.02 K, 113.38 kPa	–	138.9
305 K, 8702.1 kPa	1271.4	–
309.99 K, 12156 kPa	1269.71	–
309.99 K, 12442 kPa	1270.47	–
314.99 K, 8185.4 kPa	1247.49	–
314.99 K, 16168 kPa	1269.57	–
315 K, 1207.6 kPa	1224.52	–
315 K, 4179.3 kPa	1234.82	–
315 K, 11929 kPa	1258.3	–
319.59 K, 129.53 kPa	–	143.66
319.59 K, 183.14 kPa	–	141.46
319.6 K, 129.45 kPa	–	143.67
319.6 K, 150.69 kPa	–	142.81
319.6 K, 150.7 kPa	–	142.81
319.6 K, 183.09 kPa	–	141.46
319.6 K, 183.12 kPa	–	141.46
319.61 K, 68.35 kPa	–	146.03
319.61 K, 129.45 kPa	–	143.67
319.61 K, 215.09 kPa	–	140.12
319.61 K, 215.18 kPa	–	140.11
319.61 K, 215.23 kPa	–	140.11
319.62 K, 68.35 kPa	–	146.03
319.99 K, 4450.8 kPa	1223.61	–
319.99 K, 19560 kPa	1267.92	–
325 K, 7686.4 kPa	1222.74	–
330 K, 10903 kPa	1221.9	–
335.01 K, 948 kPa	1170.3	–
335.01 K, 4081.7 kPa	1184.44	–

Conditions	vapor or sublimation pressure [kPa]
280.01 K	65.1
290.01 K	96.5
300 K	139
310.01 K	194.9
320.02 K	267.1
330.01 K	357.9

From the NIST ThermoML archive (doi:10.1021/acs.jced.5b00348)
